Results as given in patent US10968225B2, “Compounds and compositions for the treatment of cystic fibrosis” (Fondazione Istituto Italiano Di Tecnologia, priority 2017, dated 2021).
pEC50: −log10 of the molar value.

These compounds were tested against T1, mutant CFTR (Homo sapiens, UniProt P13569, DEL508-508) (assay: Fluorescence (HS-YFP) assay for CFTR activity, corrector assay). Conditions: CFBE41o- and FRT cells with stable expression of mutant CFTR, read-out: activity (EC50).
T1 construct: expressed in transfected cells
T1 sequence (P13569 with tags, fused parts or gaps DEL508-508): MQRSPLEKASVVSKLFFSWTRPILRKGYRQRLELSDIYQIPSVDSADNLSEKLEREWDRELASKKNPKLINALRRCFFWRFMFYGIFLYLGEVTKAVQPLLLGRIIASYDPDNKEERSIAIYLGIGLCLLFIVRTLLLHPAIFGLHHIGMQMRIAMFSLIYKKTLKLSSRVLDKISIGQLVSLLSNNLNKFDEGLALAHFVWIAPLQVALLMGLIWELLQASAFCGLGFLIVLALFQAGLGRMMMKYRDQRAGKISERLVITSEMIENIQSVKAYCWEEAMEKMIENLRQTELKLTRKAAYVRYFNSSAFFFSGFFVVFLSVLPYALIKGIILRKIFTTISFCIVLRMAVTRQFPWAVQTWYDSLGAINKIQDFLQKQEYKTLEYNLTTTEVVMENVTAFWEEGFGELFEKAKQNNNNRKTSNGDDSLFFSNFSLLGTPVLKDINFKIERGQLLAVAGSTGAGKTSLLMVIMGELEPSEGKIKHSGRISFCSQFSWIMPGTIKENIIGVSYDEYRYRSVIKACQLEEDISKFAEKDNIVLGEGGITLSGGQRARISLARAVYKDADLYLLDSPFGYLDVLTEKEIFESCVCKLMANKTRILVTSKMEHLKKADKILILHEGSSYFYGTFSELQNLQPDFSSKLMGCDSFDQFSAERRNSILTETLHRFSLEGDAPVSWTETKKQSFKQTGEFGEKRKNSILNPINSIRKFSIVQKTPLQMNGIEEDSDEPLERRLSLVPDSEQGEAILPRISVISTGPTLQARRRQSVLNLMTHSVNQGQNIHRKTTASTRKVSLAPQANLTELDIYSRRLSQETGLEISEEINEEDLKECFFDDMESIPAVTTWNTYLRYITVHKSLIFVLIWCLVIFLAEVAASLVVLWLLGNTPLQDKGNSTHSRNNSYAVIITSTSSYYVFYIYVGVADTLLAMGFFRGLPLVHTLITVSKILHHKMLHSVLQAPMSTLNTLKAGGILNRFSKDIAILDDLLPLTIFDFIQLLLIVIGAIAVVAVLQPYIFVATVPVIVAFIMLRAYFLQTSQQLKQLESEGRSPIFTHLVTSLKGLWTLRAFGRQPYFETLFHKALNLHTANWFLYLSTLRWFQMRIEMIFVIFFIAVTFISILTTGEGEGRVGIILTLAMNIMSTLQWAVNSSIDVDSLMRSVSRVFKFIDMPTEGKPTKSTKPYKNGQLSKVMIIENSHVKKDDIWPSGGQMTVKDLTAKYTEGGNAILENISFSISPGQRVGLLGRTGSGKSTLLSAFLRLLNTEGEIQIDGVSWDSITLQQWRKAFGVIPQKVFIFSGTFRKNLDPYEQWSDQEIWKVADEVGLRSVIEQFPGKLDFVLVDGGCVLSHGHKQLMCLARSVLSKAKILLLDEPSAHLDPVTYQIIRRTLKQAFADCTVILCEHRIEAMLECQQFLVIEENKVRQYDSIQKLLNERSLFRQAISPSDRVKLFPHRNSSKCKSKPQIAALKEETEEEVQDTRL
Type: cell-based
For `Cc1cn2cc(NC(=O)c3cccc(-n4nc(C(F)(F)F)c5c4CCN(C(=O)C(C)(C)C)C5)c3)ccc2n1` [Compound 084, 3-[5-(2,2-Dimethylpropanoyl)-3-(trifluoromethyl)-6,7-dihydro-4H-pyrazolo[4,3-c]pyridin-1-yl]-N-(2-methylimidazo [1,2-a]pyridin-6-yl)benzamide], the pEC50 was < 5.70.
`COc1ccc(N(C)C(=O)c2cccc(-n3nc(C(F)(F)F)c4c3CCN(C(=O)C(C)(C)C)C4)c2)cn1` [Compound 085, 3-[5-(2,2-Dimethylpropanoyl)-3-(trifluoromethyl)-6,7-dihydro-4Hpyrazolo[4,3-c]pyridin-1-yl]-N-(6-methoxy-3-pyridyl)-N-methylbenzamide] was tested, and the pEC50 was > 6.00.
`Cc1nn(CCC(=O)O)c(C)c1S(=O)(=O)N1CCc2c(c(C(F)(F)F)nn2-c2cccc(C(=O)N(C)c3ccc4c(c3)OCO4)c2)C1` [Compound 086, 3-[4-[[1-[3-[1,3-Benzodioxol-5-yl(methyl)carbamoyl]phenyl]-3-(trifluoromethyl)-6,7-dihydro-4H-pyrazolo[4,3-c]pyridin-5-yl]sulfonyl]-3,5-dimethyl-pyrazol-1-yl] propanoic acid] was tested, and the pEC50 was > 6.00.
In the case of `Cc1[nH]nc(C(=O)O)c1S(=O)(=O)N1CCc2c(c(C(F)(F)F)nn2-c2cccc(C(=O)N(C)c3ccc4c(c3)OCO4)c2)C1` [Compound 089, 4-[[1-[3-[1,3-Benzodioxol-5-yl(methyl)carbamoyl]phenyl]-3-(trifluoromethyl)-6,7-dihydro-4H-pyrazolo[4,3-c]pyridin-5-yl]sulfonyl]-5-methyl-1H-pyrazole-3-carboxylic acid], the pEC50 was > 6.00.
For `COc1cc(N(C)C(=O)c2cccc(-n3nc(C(F)(F)F)c4c3CCN(C(=O)C(C)(C)C)C4)c2)ccn1` [Compound 090, 3-[5-(2,2-Dimethylpropanoyl)-3-(trifluoromethyl)-6,7-dihydro-4H-pyrazolo[4,3-c]pyridin-1-yl]-N-(2-methoxy-4-pyridyl)-N-methyl-benzamide], the pEC50 was > 6.00.
In the case of `Cc1cn2cc(N(C)C(=O)c3cccc(-n4nc(C(F)(F)F)c5c4CCN(C(=O)C(C)(C)C)C5)c3)ccc2n1` [Compound 091, 3-[5-(2,2-Dimethylpropanoyl)-3-(trifluoromethyl)-6,7-dihydro-4H-pyrazolo[4,3-c]pyridin-1-yl]-N-methyl-N-(2-methylimidazo[1,2-a]pyridin-6-yl)benzamide], the pEC50 was 5.70 to 6.00.
With `Cc1noc(C)c1S(=O)(=O)N1CCc2c(c(C(F)(F)F)nn2-c2cccc(C(=O)N(C)c3ccc4c(c3)OC(F)(F)O4)c2)C1` [Compound 096, N-(2,2-Difluoro-1,3-benzodioxol-5-yl)-3-[5-(3,5-dimethylisoxazol-4-yl)sulfonyl-3-(trifluoromethyl)-6,7-dihydro-4H-pyrazolo[4,3-c]pyridin-1-yl]-N-methyl-benzamide] the pEC50 was > 6.00.
Work on `CC(C)c1nn(-c2cccc(C(=O)N(C)c3ccc4c(c3)OC(F)(F)O4)c2)c2c1CCCC2` [Compound 102, N-(2,2-difluoro-1,3-benzodioxol-5-yl)-3-(3-isopropyl-4,5,6,7-tetrahydroindazol-1-yl)-N-methyl-benzamide] yielded a pEC50 of 5.70 to 6.00.
`Cc1nn(-c2cccc(C(=O)N(C)c3ccc4c(c3)OC(F)(F)O4)c2)c2c1CCCC2` [Compound 103, N-(2,2-Difluoro-1,3-benzodioxol-5-yl)-N-methyl-3-(3-methyl-4,5,6,7-tetrahydroindazol-1-yl)benzamide] was tested, and the pEC50 was < 5.70.
With `CN(C(=O)c1cccc(-n2nc(C(F)(F)F)c3c2C(Oc2ccc(C(=O)O)cc2)CCC3)c1)c1ccc2c(c1)OC(F)(F)O2` (centres unmarked) [Compound 109, 4-[[1-[3-[(2,2-Difluoro-1,3-benzodioxol-5-yl)-methyl-carbamoyl]phenyl]-3-(trifluoromethyl)-4,5,6,7-tetrahydroindazol-7-yl]oxy]benzoic acid] the pEC50 was > 6.00.
For `Cc1nn(-c2cccc(C(=O)N(C)c3ccc4c(c3)OCO4)c2)c2c1CCCC2` [Compound 132, N-(1,3-Benzodioxol-5-yl)-N-methyl-3-(3-methyl-4,5,6,7-tetrahydroindazol-1-yl)benzamide], the pEC50 was 5.70 to 6.00.
For `CC(C)c1nn(-c2cccc(C(=O)N(C)c3ccc4c(c3)OCO4)c2)c2c1CCCC2` [Compound 133, N-(1,3-Benzodioxol-5-yl)-3-(3-isopropyl-4,5,6,7-tetrahydroindazol-1-yl)-N-methyl-benzamide], the pEC50 was > 6.00.
For `CN(C(=O)c1cccc(-n2nc(C(F)(F)F)c3c2CCN(CCCC(=O)O)C3)c1)c1ccc2c(c1)OCO2` [Compound 135, 4-[1-[3-[1,3-Benzodioxol-5-yl(methyl)carbamoyl]phenyl]-3-(trifluoromethyl)-6,7-dihydro-4H-pyrazolo[4,3-c]pyridin-5-yl]butanoic acid], the pEC50 was < 5.70.
For `Cc1nc2ccc(N(C)C(=O)c3cccc(-n4nc(C(F)(F)F)c5c4CCN(S(=O)(=O)c4c(C)noc4C)C5)c3)cc2o1` [Compound 137, 3-[5-(3,5-Dimethylisoxazol-4-yl)sulfonyl-3-(trifluoromethyl)-6,7-dihydro-4H-pyrazolo[4,3-c]pyridin-1-yl]-N-methyl-N-(2-methyl-1,3-benzoxazol-6-yl)benzamide], the pEC50 was > 6.00.
`Cc1nc2cc(F)c(N(C)C(=O)c3cccc(-n4nc(C(F)(F)F)c5c4CCN(S(=O)(=O)c4c(C)noc4C)C5)c3)cc2o1` [Compound 138, 3-[5-(3,5-Dimethylisoxazol-4-yl)sulfonyl-3-(trifluoromethyl)-6,7-dihydro-4H-pyrazolo[4,3-c]pyridin-1-yl]-N-(5-fluoro-2-methyl-1,3-benzoxazol-6-yl)-N-methyl-benzamide] was tested, and the pEC50 was > 6.00.
In the case of `CN(C(=O)c1cccc(-n2nc(C(F)(F)F)c3c2CCN(C2CC(C(=O)O)C2)C3)c1)c1ccc2c(c1)OCO2` (centres unmarked) [Compound 140, 3-[1-[3-[1,3-Benzodioxol-5-yl(methyl)carbamoyl]phenyl]-3-(trifluoromethyl)-6,7-dihydro-4H-pyrazolo[4,3-c]pyridin-5-yl]cyclobutanecarboxylic acid], the pEC50 was < 5.70.
In the case of `CN(C(=O)c1cccc(-n2nc(C(F)(F)F)c3c2CCN(C(=O)C(C)(C)C)C3)c1)c1ccc2nccnc2c1` [Compound 141, 3-[5-(2,2-Dimethylpropanoyl)-3-(trifluoromethyl)-6,7-dihydro-4H-pyrazolo[4,3-c]pyridin-1-yl]-N-methyl-N-quinoxalin-6-yl-benzamide], the pEC50 was > 6.00.
With `COc1ncc(N(C)C(=O)c2cccc(-n3nc(C(F)(F)F)c4c3CCN(C(=O)C(C)(C)C)C4)c2)cn1` [Compound 142, 3-[5-(2,2-Dimethylpropanoyl)-3-(trifluoromethyl)-6,7-dihydro-4H-pyrazolo[4,3-c]pyridin-1-yl]-N-(2-methoxypyrimidin-5-yl)-N-methyl-benzamide] the pEC50 was < 5.70.
`CN(C(=O)c1cccc(-n2nc(C(F)(F)F)c3c2C(Oc2ccc(C(=O)O)c(F)c2)CCC3)c1)c1ccc2c(c1)OC(F)(F)O2` (centres unmarked) [Compound 147, 2-Fluoro-4-[[1-[3-[(2,2-difluoro-1,3-benzodioxol-5-yl)-methyl-carbamoyl]phenyl]-3-(trifluoromethyl)-4,5,6,7-tetrahydroindazol-7-yl]oxy]benzoic acid] was tested, and the pEC50 was > 6.00.
For `Cc1nc2cc(F)c(N(C)C(=O)c3cccc(-n4nc(C(F)(F)F)c5c4C(Oc4ccc(C(=O)O)cc4)CCC5)c3)cc2o1` (centres unmarked) [Compound 153, 4-[[1-[3-[(5-Fluoro-2-methyl-1,3-benzoxazol-6-yl)-methyl-carbamoyl]phenyl]-3-(trifluoromethyl)-4,5,6,7-tetrahydroindazol-7-yl]oxy]benzoic acid], the pEC50 was > 6.00.
